Values of other authors as cited in publication PMC7250496 (Journal of medicinal chemistry, 2020).

Experiments:
[1] = target: mMC3R (Mus musculus, UniProt P33033); details: previously reported ref 80
[2] = target: mMC5R (Mus musculus, UniProt P41149); details: previously reported ref 80
mMC5R, sequence (P41149 whole entry): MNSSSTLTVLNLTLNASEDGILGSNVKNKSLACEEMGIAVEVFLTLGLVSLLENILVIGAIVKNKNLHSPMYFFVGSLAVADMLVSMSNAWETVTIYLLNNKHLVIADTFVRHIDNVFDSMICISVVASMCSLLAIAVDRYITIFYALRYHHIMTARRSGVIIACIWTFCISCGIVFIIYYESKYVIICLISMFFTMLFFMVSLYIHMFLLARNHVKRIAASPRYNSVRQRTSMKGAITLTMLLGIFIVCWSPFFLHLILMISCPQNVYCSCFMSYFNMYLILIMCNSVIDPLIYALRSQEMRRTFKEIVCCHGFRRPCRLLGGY

mMC3R, sequence (P33033 whole entry): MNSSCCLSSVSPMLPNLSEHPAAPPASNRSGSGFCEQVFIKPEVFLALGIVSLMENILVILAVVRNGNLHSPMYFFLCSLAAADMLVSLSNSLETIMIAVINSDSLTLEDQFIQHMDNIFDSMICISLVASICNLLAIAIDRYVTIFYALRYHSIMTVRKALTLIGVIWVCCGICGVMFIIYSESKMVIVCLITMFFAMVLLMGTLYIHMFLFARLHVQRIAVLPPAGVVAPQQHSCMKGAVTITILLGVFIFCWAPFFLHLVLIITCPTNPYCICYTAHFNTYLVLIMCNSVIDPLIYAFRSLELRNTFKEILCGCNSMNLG

mMC3R pA2 ([1]; antagonist, Schild analysis, agonist NDP-MSH): 6.5 ± 0.09
EC50 ([1]; read-out: mMC3R EC50, agonist): > 100 µM
mMC5R Inverse Agonist, percent decrease from basal [2]: Inverse Agonist −15%
Structure (SMILES): C[C@@H]1NC(=O)[C@H](CN)NC(=O)[C@H](Cc2ccccc2)NC(=O)[C@H](Cc2ccccc2)NC(=O)[C@H](CCCNC(=N)N)NC(=O)[C@@H]2CCCN2C(=O)[C@H]2CCCN2C(=O)[C@H](Cc2ccccc2)NC1=O [Compound 2, c[Pro-Arg-Phe-Phe-Dap-Ala-Phe-DPro]]
